Laboratory results as given in patent US11233200B2, “Condensed cyclic compound, composition including the same, and organic light-emitting device including the condensed cyclic compound” (Samsung Electronics Co., Ltd., priority 2018, dated 2022).

Legend:
[1] = Measurement of triplet energy level; assay type: physicochemical; conditions: spin-coated film of about 50 nm from 3 weight % toluene solution; PL spectrum at 77 K, peak of shortest wavelength
Protocol: Compound 1 was dissolved in toluene to a concentration of 3 weight % to prepare a solution. The same applied to Compounds 3 and C1 to prepare solutions. The solutions were spin-coated at a rotational speed of 1,600 revolutions per minute (rpm) and dried on a hot plate at a temperature of 120° C. for 15 minutes to obtain films (samples) having a thickness (film thickness after dry) of about 50 nanometers (nm). The samples were cooled to a temperature of 77 Kelvins (K) (−196° C.) and photoluminescence (PL) spectrums were obtained. The triplet energy levels (electron volts, eV) were calculated at the peak values of the shortest wavelengths of the PL spectrums.

[2] = Measurement of solubility; assay type: physicochemical; conditions: methyl benzoate (solvent), room temperature, ultrasonic waves
Protocol: 50 milligrams (mg) of Compound 1 and 500 mg of methyl benzoate (solvent) were added to a colorless sample bottle, ultrasonic waves were irradiated thereon at room temperature for 5 minutes, and the presence or absence of Compound 1 was visually confirmed. […] When Compound 1 remains, a small amount of a solvent was added thereto, the irradiation of ultrasonic waves was repeated, and an amount of the solvent was measured until Compound 1 was completely dissolved. The solubility was measured from the amount of the solvent finally used. The solubility values of Compounds 3 and C1 were calculated in the same manner.

| Triplet energy level [1] | Solubility [2] | SMILES |
| --- | --- | --- |
| 2.91 eV | <1 weight % | c1ccc(-c2nc(-c3ccccc3)nc(-c3cccc(-c4cccc(-c5cccc6c5-c5ccccc5C65c6ccccc6-c6c(-c7ccccc7)cccc65)c4)c3)n2)cc1 (centres unmarked) [Compound C2] |
| 2.96 eV | 7 weight % | c1ccc(-c2cccc(-c3cccc(-c4cccc5c4-c4ccccc4C54c5ccccc5-c5c(-c6cccc(-c7cccc(-c8ccccc8)c7)c6)cccc54)c3)c2)cc1 [Compound 1] |
| 2.81 eV | 2 weight % | c1ccc(-c2cccc(-c3cccc(-c4ccc5c(c4)C4(c6ccccc6-5)c5ccccc5-c5ccc(-c6cccc(-c7cccc(-c8ccccc8)c7)c6)cc54)c3)c2)cc1 [Compound C1] |
| 2.96 eV | 9 weight % | c1ccc(-c2cc(-c3ccccc3)cc(-c3cccc(-c4cccc5c4-c4ccccc4C54c5ccccc5-c5c(-c6cccc(-c7cc(-c8ccccc8)cc(-c8ccccc8)c7)c6)cccc54)c3)c2)cc1 [Compound 3] |
